Source: publication PMC3652757, “Enhancement of fermentable sugar yields by α-xylosidase supplementation of commercial cellulases” (Biotechnology for Biofuels, 2013)

Molecular target: T1, AxlA (Aspergillus niger, UniProt A2QTU5)
T1 sequence (A2QTU5 19-736): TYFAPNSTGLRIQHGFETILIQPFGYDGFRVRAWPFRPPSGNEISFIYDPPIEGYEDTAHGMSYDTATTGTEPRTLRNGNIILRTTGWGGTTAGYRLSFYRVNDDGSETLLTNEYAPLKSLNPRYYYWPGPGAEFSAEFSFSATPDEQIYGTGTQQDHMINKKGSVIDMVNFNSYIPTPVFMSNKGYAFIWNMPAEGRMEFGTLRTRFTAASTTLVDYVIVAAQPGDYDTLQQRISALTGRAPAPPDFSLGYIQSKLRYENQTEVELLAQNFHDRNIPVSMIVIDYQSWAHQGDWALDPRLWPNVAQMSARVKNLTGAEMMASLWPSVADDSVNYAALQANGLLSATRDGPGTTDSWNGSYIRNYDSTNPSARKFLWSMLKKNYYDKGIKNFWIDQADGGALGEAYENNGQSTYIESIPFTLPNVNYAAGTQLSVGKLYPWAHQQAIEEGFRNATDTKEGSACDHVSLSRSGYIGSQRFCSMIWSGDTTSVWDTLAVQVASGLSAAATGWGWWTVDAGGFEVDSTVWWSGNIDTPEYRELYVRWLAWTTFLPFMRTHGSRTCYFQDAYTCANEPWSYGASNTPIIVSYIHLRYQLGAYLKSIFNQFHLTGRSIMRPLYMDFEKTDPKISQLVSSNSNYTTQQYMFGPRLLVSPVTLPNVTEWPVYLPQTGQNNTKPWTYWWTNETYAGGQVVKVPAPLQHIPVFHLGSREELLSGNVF
Experiment: pNPαX hydrolysis competition, nonlinear curve fitting
Type: biochemical
Settings: substrate p-nitrophenyl-α-xyloside 0-20 mM; reaction product

Ki: 13.7 mM
Structure (SMILES): OC1OC[C@@H](O)[C@H](O)[C@H]1O (stereo partly shown) [Xyl]
